In article PMC6952396, “Structural basis for itraconazole-mediated NPC1 inhibition” (Nature Communications, 2020):

Target: T1, NPC1 (Cricetulus griseus, UniProt Q9JLG3)
T1 construct: CHO-7 cells in the medium are deprived of cholesterol to induce the LDL receptors biosynthesis; endogenous in cells; host or cells: CHO-7 cells
T1 sequence (Q9JLG3 23-1277): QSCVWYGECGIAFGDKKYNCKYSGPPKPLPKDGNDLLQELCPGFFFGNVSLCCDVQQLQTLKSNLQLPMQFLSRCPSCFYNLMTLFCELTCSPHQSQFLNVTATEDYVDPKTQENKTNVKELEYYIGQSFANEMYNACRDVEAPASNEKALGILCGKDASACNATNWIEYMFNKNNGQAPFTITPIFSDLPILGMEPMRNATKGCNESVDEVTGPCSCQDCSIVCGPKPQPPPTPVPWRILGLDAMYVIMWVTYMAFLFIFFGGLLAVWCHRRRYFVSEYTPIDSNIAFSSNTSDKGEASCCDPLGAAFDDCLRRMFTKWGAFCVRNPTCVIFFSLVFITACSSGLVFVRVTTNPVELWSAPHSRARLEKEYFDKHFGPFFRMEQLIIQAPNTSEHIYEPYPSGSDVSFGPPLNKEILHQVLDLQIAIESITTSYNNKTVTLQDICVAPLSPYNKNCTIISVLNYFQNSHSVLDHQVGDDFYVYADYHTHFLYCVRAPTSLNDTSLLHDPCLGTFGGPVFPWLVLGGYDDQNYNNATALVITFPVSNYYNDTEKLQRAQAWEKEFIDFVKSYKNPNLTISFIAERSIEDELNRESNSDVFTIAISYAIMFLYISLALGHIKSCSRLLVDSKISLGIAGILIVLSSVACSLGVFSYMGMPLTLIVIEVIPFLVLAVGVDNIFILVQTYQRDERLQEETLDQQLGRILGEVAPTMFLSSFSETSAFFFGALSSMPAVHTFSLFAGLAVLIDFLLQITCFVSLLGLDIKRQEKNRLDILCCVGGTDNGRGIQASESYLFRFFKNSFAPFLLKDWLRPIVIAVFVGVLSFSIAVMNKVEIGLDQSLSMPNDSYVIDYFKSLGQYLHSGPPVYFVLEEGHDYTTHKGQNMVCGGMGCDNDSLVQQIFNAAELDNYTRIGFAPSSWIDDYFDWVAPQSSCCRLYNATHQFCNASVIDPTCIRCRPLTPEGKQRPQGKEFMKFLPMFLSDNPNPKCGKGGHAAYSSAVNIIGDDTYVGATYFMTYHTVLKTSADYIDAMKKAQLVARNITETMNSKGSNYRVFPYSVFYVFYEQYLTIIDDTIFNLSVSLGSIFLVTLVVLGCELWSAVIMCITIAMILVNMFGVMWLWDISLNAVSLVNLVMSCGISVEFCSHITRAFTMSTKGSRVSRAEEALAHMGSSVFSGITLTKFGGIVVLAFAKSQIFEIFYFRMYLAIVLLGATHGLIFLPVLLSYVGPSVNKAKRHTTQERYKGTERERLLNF
Experiment: Cholesterol re-esterification (ACAT) assay measuring NPC1-mediated export of cholesterol from lysosomes in CHO-7 cells
Type: cell-based
Settings: for cholesteryl [14C] oleate formed, Repeat 1 / cholesteryl [14C] oleate formed, Repeat 2: Fig. 2 source data; for cholesteryl [14C] oleate formed, Repeat 3 / cholesteryl [14C] oleate formed, Repeat 4: Supplementary Fig. 3 source data
Method in brief: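 CHO-7 cells were sterol-deprived (5% LPDS, 50 µM compactin, 50 µM mevalonate), then given compounds with 10% FCS lipoproteins for 4 h at 37 °C and pulse-labeled 2 h with 0.1 mM [14C]oleate. Lipids were extracted, separated by TLC and cholesteryl [14C]oleate quantified by scintillation counting.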

CC(=O)N1CCN(c2ccc(OCC3COC(Cn4ccnc4)(c4ccc(Cl)cc4Cl)O3)cc2)CC1 (stereo not shown) [Ketoconazole, ketoconazole]
cholesteryl [14C] oleate formed, Repeat 1 (0.06 uM compound): 5.105 nanomoles formed per hour per milligram cell protein | cholesteryl [14C] oleate formed, Repeat 2 (0.06 uM compound): 4.499 nanomoles formed per hour per milligram cell protein | cholesteryl [14C] oleate formed, Repeat 1 (0.1 uM compound): 5.133 nanomoles formed per hour per milligram cell protein | cholesteryl [14C] oleate formed, Repeat 2 (0.1 uM compound): 5.266 nanomoles formed per hour per milligram cell protein | cholesteryl [14C] oleate formed, Repeat 3 (0.1 uM compound): 5.665 nanomoles formed per hour per milligram cell protein | cholesteryl [14C] oleate formed, Repeat 4 (0.1 uM compound): 5.29 nanomoles formed per hour per milligram cell protein | cholesteryl [14C] oleate formed, Repeat 1 (0.3 uM compound): 4.872 nanomoles formed per hour per milligram cell protein | cholesteryl [14C] oleate formed, Repeat 2 (0.3 uM compound): 4.637 nanomoles formed per hour per milligram cell protein | cholesteryl [14C] oleate formed, Repeat 3 (0.3 uM compound): 4.5308 nanomoles formed per hour per milligram cell protein | cholesteryl [14C] oleate formed, Repeat 4 (0.3 uM compound): 5.341 nanomoles formed per hour per milligram cell protein | cholesteryl [14C] oleate formed, Repeat 1 (1 uM compound): 4.011 nanomoles formed per hour per milligram cell protein | cholesteryl [14C] oleate formed, Repeat 2 (1 uM compound): 4.3222 nanomoles formed per hour per milligram cell protein | cholesteryl [14C] oleate formed, Repeat 3 (1 uM compound): 3.625 nanomoles formed per hour per milligram cell protein | cholesteryl [14C] oleate formed, Repeat 4 (1 uM compound): 4.546 nanomoles formed per hour per milligram cell protein | IC50 (IC50 (concentration at which each compound inhibited cholesterol esterification by 50%), 10% FCS, 4 h then 2 h [14C] oleate pulse): > 1 µM | inhibition of NPC1-mediated cholesterol transport (result in words): did not inhibit
